Results taken from patent US6673938B1, “Substituted pyridine herbicides” (Syngenta Participations AG, priority 1998, dated 2004).

Test system: Monocotyledonous and dicotyledonous test plants
Assay: Post-emergence herbicidal action
Type: in vivo
Settings: evaluated after approximately 18 days; for Post-emergence action, Ipomoea / Post-emergence action, Lolium / Post-emergence action, Setaria / Post-emergence action, Sinapis / Post-emergence action, Solanum / Post-emergence action, Stellaria: 2000 g/ha, sprayed in 4- to 6-leaf stage, nine-step scale; for Post-emergence action: Abutilon (score, nine-step scale) / Post-emergence action: Chenop. (score, nine-step scale) / Post-emergence action: Digitaria (score, nine-step scale) / Post-emergence action: Echino. (score, nine-step scale) / Post-emergence action: Ipopur. (score, nine-step scale) / Post-emergence action: Panicum (score, nine-step scale) / Post-emergence action: Xanth. (score, nine-step scale): 250 g/ha, sprayed at 4- to 6-leaf stage
Experimental: Monocotyledonous and dicotyledonous test plants are grown in the greenhouse in plastic pots containing standard soil, and, in the 4- to 6-leaf stage, sprayed with an aqueous suspension of the test substances of the formula I prepared with a 25% wettable powder (Example F3, b) in accordance with WO 97/34485) or with an emulsion of the test substances of the formula I prepared with a 25% emulsion concentrate (Example F1, c) in accordance with WO 97/34485), corresponding to a rate of 2 kg of a.i./ha or 250 g of a.i./ha (500 l of water/ha). The test plants are subsequently grown on in the greenhouse under optimal conditions. After a test period of approximately 18 days, the test is evaluated with reference to a nine-step scale (1=complete damage, 9=no effect). Score figures of 1 to 4 (in particular 1 to 3) mean a good to very good herbicidal action. In this test, the compounds of the formula I show a potent herbicidal action.

Row | SMILES | Post-emergence action, Ipomoea | Post-emergence action, Lolium | Post-emergence action, Setaria | Post-emergence action, Sinapis | Post-emergence action, Solanum | Post-emergence action, Stellaria | Post-emergence action: Abutilon (score, nine-step scale) | Post-emergence action: Chenop. (score, nine-step scale) | Post-emergence action: Digitaria (score, nine-step scale) | Post-emergence action: Echino. (score, nine-step scale) | Post-emergence action: Ipopur. (score, nine-step scale) | Post-emergence action: Panicum (score, nine-step scale) | Post-emergence action: Xanth. (score, nine-step scale)
1 | CC1(C)CCC(=O)C(C(=O)c2ccc(C(F)(F)F)nc2C2CC2)=C1O [Compound A6-B24] | 1 | 3 | 2 | 1 | 1 | 2 |  |  |  |  |  |  | 
2 | Cc1c(C(=O)C2=C(O)CCCC2=O)ccc(C(F)(F)F)[n+]1[O-] [Compound A1210-B1, 3-Hydroxy-2-(2-methyl-1-oxy-6-trifluoromethylpyridine-3-carbonyl)cyclohex-2-enone] |  |  |  |  |  |  | 2 | 1 | 2 | 2 | 2 | 2 | 2
3 | Cc1nc(C(F)(F)F)ccc1C(=O)C1=C(O)CC(c2ccccc2)CC1=O (stereo not shown) [Compound A2-B1058] | 1 | 2 | 4 | 1 | 2 | 2 |  |  |  |  |  |  | 
4 | Cc1nc(C(F)(F)F)ccc1C(=O)C1=C(O)CC(C)(C(F)(F)F)CC1=O (stereo not shown) [Compound A2-B1066] | 1 | 3 | 2 | 1 | 2 | 2 |  |  |  |  |  |  | 
5 | Cc1cc(C(F)(F)F)ncc1C(=O)C1=C(O)C(C)(C)CCC1=O [Compound A531-B24] | 2 | 2 | 2 | 1 | 2 | 2 |  |  |  |  |  |  | 
6 | COC(=O)C1(C)C(O)=C(C(=O)c2ccc(C(F)(F)F)nc2C)C(=O)CC1(C)C (stereo not shown) [Compound A2-B1087] | 1 | 4 | 3 | 1 | 2 | 2 |  |  |  |  |  |  | 
7 | CCC1(CC)CC(C)C(=O)C(C(=O)c2ccc(C(F)(F)F)nc2C)=C1O (stereo not shown) [Compound A2-B1093] | 2 | 2 | 2 | 1 | 2 | 2 |  |  |  |  |  |  | 
8 | CSC1(C)CCC(=O)C(C(=O)c2ccc(C(F)(F)F)nc2C)=C1O (stereo not shown) [Compound A2-B29] | 2 | 3 | 2 | 1 | 2 | 2 |  |  |  |  |  |  | 
9 | CC1=CCCC(O)=C(C(=O)c2ccc(C(F)(F)F)nc2C)C1=O [Compound A2-F5, 3-Hydroxy-7-methyl-2-(2-methyl-6-trifluoromethyloyridine-3-carbonyl)cyclohepta-2,6-dienone] |  |  |  |  |  |  | 3 | 3 | 3 | 3 | 4 | 3 | 3
10 | COCc1nc(C(F)(F)F)ccc1C(=O)C1=C(O)C(C)C2CC2C1=O (stereo not shown) [Compound A8-D109] |  |  |  |  |  |  | 3 | 3 | 3 | 3 | 2 | 3 | 1
11 | COC(=O)C1C(O)=C(C(=O)c2ccc(C(F)(F)F)nc2C)C(=O)CC1(C)C (stereo not shown) [Compound A2-B1094] |  |  |  |  |  |  | 3 | 2 | 3 | 2 | 3 | 2 | 3
12 | COCc1nc(C(F)(F)F)ccc1C(=O)C1=C(O)CC(C)CC1=O (stereo not shown) [Compound A8-B133] | 2 | 4 | 2 | 1 | 2 | 2 |  |  |  |  |  |  | 
13 | Cc1nc(C(F)(F)C(F)(F)F)ccc1C(=O)C1=C(O)C(C)(C)CCC1=O [Compound A34-B24] | 1 | 2 | 2 | 1 | 2 | 2 |  |  |  |  |  |  | 
14 | Cc1nc(C(F)(F)F)ccc1C(=O)C1=C(O)C2CC2C(C)([S+](C)[O-])C1=O (stereo not shown) [Compound A2-D114, 5-Hydroxy-2-methanesulfinyl-2-methyl-4-(2-methyl-6-trifluoromethylpyridine-3-carbonyl)bicyclo[4.1.0]hept-4-en-3-one] | 2 | 1 | 1 | 1 | 1 | 1 |  |  |  |  |  |  | 
15 | CCC1(CC)CCC(=O)C(C(=O)c2ccc(C(F)(F)F)nc2C)=C1O [Compound A2-B112] | 2 | 3 | 2 | 1 | 2 | 2 |  |  |  |  |  |  | 
16 | CCCC1(C)CC(C)C(=O)C(C(=O)c2ccc(C(F)(F)F)nc2C)=C1O (stereo not shown) [Compound A2-B70] | 3 | 4 | 3 | 1 | 2 | 2 |  |  |  |  |  |  | 
17 | COCc1nc(C(F)(F)F)ccc1C(=O)C1=C(O)CCC=C(C)C1=O [Compound A8-F5] |  |  |  |  |  |  | 3 | 3 | 3 | 4 | 3 | 4 | 3
18 | Cc1nc(C(F)(F)F)ccc1C(=O)C1=C(O)C(C(C)C)CCC1=O (stereo not shown) [Compound A2-B5] | 1 | 2 | 2 | 1 | 2 | 2 |  |  |  |  |  |  | 
19 | CCSC1(CC)CC(C)C(=O)C(C(=O)c2ccc(C(F)(F)F)nc2C)=C1O (stereo not shown) [Compound A2-B1091] |  |  |  |  |  |  | 3 | 3 | 4 | 2 | 3 | 4 | 4
20 | Cc1nc(C(F)(F)F)ccc1C(=O)C1=C(O)CCC2(CCOC2=O)C1=O (stereo not shown) [Compound A2-E16] | 2 | 3 | 2 | 2 | 2 | 2 |  |  |  |  |  |  | 
21 | CCCc1nc(C(F)(F)F)ccc1C(=O)C1=C(O)C(C)(C)CCC1=O [Compound A7-B24] | 1 | 2 | 2 | 1 | 2 | 2 |  |  |  |  |  |  | 
22 | Cc1nc(C(F)(F)C(F)(F)C(F)(F)F)ccc1C(=O)C1=C(O)CCCC1=O [Compound A64-B1] | 2 | 3 | 4 | 1 | 1 | 2 |  |  |  |  |  |  | 
23 | COCc1nc(C(F)(F)F)ccc1C(=O)C1=C(O)CC2CCCC2C1=O (stereo not shown) [Compound A8-D36] |  |  |  |  |  |  | 2 | 2 | 3 | 2 | 3 | 3 | 3
